For orientation: IC50 means the concentration needed to halve the response being measured.

The structures appear in SMILES notation.

The subject of the assay is PC3 cells. Put plainly: xCELLigence RTCA real-time cell invasion assay (CIM plate, Matrigel) on PC3 prostate cancer cells. The class given is cell-based. The conditions noted are these: Homo sapiens, PC-3, compound 25 uM to 1 uM, cell index monitored for 72 hours, four-parameter dose-response curve, read-out: IC50, Effect of compounds on the invention on prostate cancer cells. As for the experimental part: The media antibiotics and serum were purchased from Invitrogen (Life Technologies). PC3 cells were purchased from ATCC (Granville, NSW, Australia). PC3 cells were expanded in cell culture T75 flasks with vented cap and then preserved in low passage number. The medium used for PC3 cells was RPMI (GlutaMAX) supplemented with 10% FCS and 1% penicillin/streptomycin (culture media). The cells were maintained at 37° C. in a humidified 95% (v/v) air/5% (v/v) CO2 environment and were grown up to 80% confluence.
XCELLigence® real-time cell analysis (RTCA) instrument (ACEA Biosciences), 16-well ACEA CIM-Plates, 16-well ACEA E-Plat and assembly tool were purchased from ELITechGroup empowering IVD (Braeside, Australia). The Matrigel was purchased from Corning (Australia).
To measure cell invasion under compound treatment the upper chamber of the CIM plate was coated with 5% Matrigel diluted in SF RPMI (20 μl) and incubated in a 37° C. tissue culture incubator for four hours. Using the assembly tool to support the chambers the lower chamber was filled with (160 μl) of culture media containing the compound in specific concertation from 25 uM to 1 uM and two controls (DMSO 0.1% and ESFAM 4C 10 uM) (see the schematic in FIG. 1). Once the upper chamber was placed on the top of the lower chamber it was loaded with (40 μl) serum-free (SF) RPMI containing the compound as previously stated. After one hour calibration in 37° C., plates were placed into the xCELLigence station, and the base-line electric impedance was measured to confirm that all wells and connections were working properly. In case of connection problem, the software automatically informs the researcher about the nature of the problem in the message section. Subsequently cells were trypsinized and upon harvesting and counting they were diluted in SF RPMI to desired density (3×10^4) and seeded (100 μl) in the wells. After 30 minutes of incubation in room-temperature to allow cell attachment the plates were loaded in the xCELLigence RTCA DP machine. The cell invasion was monitored in real-time for the duration of 72 hours. […]
The xCELLigence system automatically monitored the electrical impedance value of each well and expressed as a cell index (CI) value for the duration of 72 hours. The data for treatments was automatically grouped as the mean±standard deviation. The software version used in these experiments is 1.2.1. The electronic record of the experimental data is automatically saved in file that cannot be altered or changed by the researcher.
Statistical analysis was performed using Microsoft® Office EXCEL and GraphPad Prism 7. The IC50 was calculated from the four-parameter dose-response curve (log(inhibitor) vs. response-variable slopes). Where the row-data was inserted in GraphPad Prism 7 (Dose response x-log(dose)) and analysed for XY nonlinear regression (curve fit), dose response-inhibition, log(inhibitor) vs response variable slope (four parameters). For the IC90 calculation the log(IC50)=log(IC90)-(1/HillSlope)*log(9) equation was used in EXCEL based on the raw data extracted from xCELLigence system and the dose-response curve.
Regarding `CC(C)(C)c1c(C(=O)Nc2cccc(O)c2)nn2c(-c3cn[nH]c3)cc(N3Cc4ccccc4C3)nc12` [Cmpd 85], the IC50 worked out at 6.51 µM.

Consider `CN(Cc1ccccc1)c1cc(-c2cn[nH]c2)n2nc(C(=O)Nc3cccc(O)c3)cc2n1` [Compound 1, 5-(benzyl(methyl)amino)-N-(3-hydroxyphenyl)-7-(1H-pyrazol-4-yl)pyrazolo[1,5-a]pyrimidine-2-carboxamide], for which the IC50 was 6.9 µM.

Consider `CN(Cc1ccccc1)c1cc(-c2cn[nH]c2)n2nc(C(N)=O)cc2n1` [Compound 2, 5-(benzyl(methyl)amino)-7-(1H-pyrazol-4-yl)pyrazolo[1,5-a]pyrimidine-2-carboxamide], for which the IC50 came out at 16.9 µM.

Consider `CN(Cc1ccccc1)c1cc(-c2cn[nH]c2)n2nc(C(=O)NCc3ccccc3)cc2n1` [Compound 3, N-benzyl-5-(benzyl(methyl)amino)-7-(1H-pyrazol-4-yl)pyrazolo[1,5-a]pyrimidine-2-carboxamide], for which the IC50 turned out to be 11.9 µM.

`CN(Cc1ccccc1)c1cc(-c2cn[nH]c2)n2nc(C(=O)Nc3ccc(O)cc3)cc2n1` [Compound 4, 5-(benzyl(methyl)amino)-N-(4-hydroxyphenyl)-7-(1H-pyrazol-4-yl)pyrazolo[1,5-a]pyrimidine-2-carboxamide]: the IC50 was 0.81 µM.

For `COc1cccc(NC(=O)c2cc3nc(N(C)Cc4ccccc4)cc(-c4cn[nH]c4)n3n2)c1` [Compound 5, 5-(benzyl(methyl)amino)-N-(3-methoxyphenyl)-7-(1H-pyrazol-4-yl)pyrazolo[1,5-a]pyrimidine-2-carboxamide], the IC50 came to 1.2 µM.

On to `CN(Cc1ccccc1)c1cc(-c2cn[nH]c2)n2nc(C(=O)Nc3cccnc3)cc2n1` [Compound 6, 5-(benzyl(methyl)amino)-7-(1H-pyrazol-4-yl)-N-(pyridin-3-yl)pyrazolo[1,5-a]pyrimidine-2-carboxamide], for which the 50% inhibitory concentration (IC50) stood at 11.7 µM.

For the molecule `CN(Cc1ccccc1)c1cc(-c2cn[nH]c2)n2nc(C(=O)Nc3ccncc3)cc2n1` [Compound 7, 5-(benzyl(methyl)amino)-7-(1H-pyrazol-4-yl)-N-(pyridin-4-yl)pyrazolo[1,5-a]pyrimidine-2-carboxamide], the IC50 turned out to be 9.49 µM.

Take `COc1cc(NC(=O)c2cc3nc(N(C)Cc4ccccc4)cc(-c4cn[nH]c4)n3n2)ccn1` [Compound 8, 5-(benzyl(methyl)amino)-N-(2-methoxypyridin-4-yl)-7-(1H-pyrazol-4-yl)pyrazolo[1,5-a]pyrimidine-2-carboxamide]: the IC50 was determined as 5.2 µM.

Take `COc1cc(NC(=O)c2cc3nc(N(C)Cc4ccccc4)cc(-c4cn[nH]c4)n3n2)cc(OC)c1` [Compound 9, 5-(benzyl(methyl)amino)-N-(3,5-dimethoxyphenyl)-7-(1H-pyrazol-4-yl)pyrazolo[1,5-a]pyrimidine-2-carboxamide]: the IC50 came to 4.28 µM.

On to `Cc1noc(C)c1NC(=O)c1cc2nc(N(C)Cc3ccccc3)cc(-c3cn[nH]c3)n2n1` [Compound 10, 5-(benzyl(methyl)amino)-N-(3,5-dimethylisoxazol-4-yl)-7-(1H-pyrazol-4-yl)pyrazolo[1,5-a]pyrimidine-2-carboxamide], for which the IC50 amounted to 3.71 µM.

On to `CN(Cc1ccccc1)c1cc(-c2cn[nH]c2)n2nc(C(=O)Nc3cn[nH]c3)cc2n1` [Compound 11, 5-(benzyl(methyl)amino)-N,7-di(1H-pyrazol-4-yl)pyrazolo[1,5-a]pyrimidine-2-carboxamide], for which the IC50 was found to be 9.71 µM.

As for `CN(Cc1ccccc1)c1cc(-c2cn[nH]c2)n2nc(C(=O)Nc3ccc(C#N)cc3)cc2n1` [Compound 12, 5-(benzyl(methyl)amino)-N-(4-cyanophenyl)-7-(1H-pyrazol-4-yl)pyrazolo[1,5-a]pyrimidine-2-carboxamide], the IC50 turned out to be 6.64 µM.

Turning to `CN(Cc1ccccc1)c1cc(-c2cn[nH]c2)n2nc(C(=O)Nc3cccc(C#N)c3)cc2n1` [Compound 13, 5-(benzyl(methyl)amino)-N-(3-cyanophenyl)-7-(1H-pyrazol-4-yl)pyrazolo[1,5-a]pyrimidine-2-carboxamide], the IC50 came out at 4.71 µM.

(Values after patent US12215112B2, “CD151 inhibitors” (ESFAM BIOTECH PTY LTD, priority 2020, dated 2025).)
